How the values were obtained:
[1] = Preparation and characterisation of mRNA-encapsulating lipid nanoparticle (encapsulation efficiency, particle size); type: physicochemical; conditions: LNP encapsulating Fluc mRNA; Lipid:DSPC:CHO-HP:M-DMG-2000 48:10:40.5:1.5
Experimental: A specified amount of Fluc mRNA stock solution, 0.2 M sodium acetate buffer, and DEPC water were added to a container, and mixed well to obtain a water phase;
The amino lipid compound of the present disclosure, a helper lipid, a structural lipid, and a PEG-lipid were separately dissolved in absolute ethanol to prepare respective solutions at concentrations of 20 mg/mL, 10 mg/mL, 20 mg/mL, and 25 mg/mL, respectively. The above four solutions were pipetted at a molar ratio of Lipid:DSPC:CHO—HP:M-DMG-2000 of 48:10:40.5:1.5, and mixed well to prepare an alcohol phase. • (2) Encapsulation: The water phase and the alcohol phase were injected into a microfluidic chip at a flow rate of water phase: alcohol phase=12 mL/min: 4 mL/min by using a microfluidic preparation instrument (MPE-L2), and encapsulation was carried out at a flow rate of water phase: alcohol phase=9 mL/min: 3 mL/min to obtain mRNA-encapsulating lipid nanoparticle (mRNA-LNP). • (3) Dialysis: The product of step (2) was loaded in a dialysis bag and placed in a Tris Buffer-8% sucrose solution for replacement to remove ingredients such as residual ethanol, unassembled lipids. Dialysis was conducted for 2 h with magnetic stirring at room temperature and under protection from light (dialysate was replaced every 1 hour). • (4) The product of step (3) was sterilized by passing through a […] microporous membrane, and then packaged.
Lipid nanoparticle formulations encapsulating Fluc mRNA were prepared, with a concentration of Fluc mRNA of 0.2 g/L, a mass ratio of Fluc mRNA to Lipid of 1:10, a particle size of 80-130 nm, and a encapsulation efficiency of 85% or higher.
The encapsulation efficiency of the lipid nanoparticle encapsulating luciferase mRNA (Fluc mRNA) with a representative amino lipid compound and the fluorescence expression intensity induced by the same are shown in Table 4, with the amino lipid compound 118 as a control. […]

[2] = tested on: Female BALB/c mice; test: Performance evaluation of in vivo delivery of Fluc mRNA lipid nanoparticle (IVIS, body and organs); conditions: Fluc mRNA LNP; for Liver (fluorescence expression intensity) / Spleen (fluorescence expression intensity): 75 μL IV; for Liver (fluorescence expression intensity) / Spleen (fluorescence expression intensity) / Total flux (fluorescence expression intensity) / (Spleen/Total Flux) * 100%: 6 hours after injection; for Liver (fluorescence expression intensity) / Spleen (fluorescence expression intensity) / Total flux (fluorescence expression intensity): IVIS; for Total flux (fluorescence expression intensity): 75 μL tail vein injection (IV); for (Spleen/Total Flux) * 100% / Multiple of spleen delivery/total delivery to amino lipid compound 118: IV; for Multiple of spleen delivery/total delivery to amino lipid compound 118: relative to amino lipid compound 118
Experimental: Animal preparation: Female BALB/c mice of 6-8 weeks old were selected and raised in an SPF grade breeding room. Animal testing was conducted in strict accordance with the guidelines of national health institutions and animal ethics requirements.
In vivo Delivery: prior to injection of the test LNP formulations, the LNP formulations were gently and repeatedly inverted to thoroughly mix the formulation samples. A corresponding amount of the formulation samples were aspirated with a 1 ml insulin syringe, and the LNP formulations were injected by tail vein injection (IV), with 3 mice in duplicate per formulation. Each mouse was injected with 75 μL of the luciferase mRNA (Fluc mRNA)-encapsulating lipid nanoparticle formulation prepared in Experimental Example 1.
6 hours after injection of LNP formulations, mice were injected with 200 μL D-Luciferin luciferase developing substrate (Catalog No. 122799; Manufacturer: Perkin Elmer). After the substrate was injected, the mice were anesthetized with isoflurane inhalation, and the injection time of luciferase developing substrate was recorded.
The encapsulation efficiency of the lipid nanoparticle encapsulating luciferase mRNA (Fluc mRNA) with a representative amino lipid compound and the fluorescence expression intensity induced by the same are shown in Table 4, with the amino lipid compound 118 as a control.
The multiple of spleen delivery/total delivery of fluorescence expression intensity induced by lipid nanoparticle encapsulating luciferase mRNA (Fluc mRNA) with a representative amino lipid compound to amino lipid compound 118 is shown in Table 5.

CCCCCCC(CCCCCC)OC(=O)CCCCCCCCC(CCCCCCCCC(=O)OC(CCCCCC)CCCCCC)OC(=O)N(CCCN1CCCC1)CC(=O)OCC [Compound 367]
Encapsulation efficiency [1]: 91.21%
Liver (fluorescence expression intensity) [2]: 1.06E+07
Spleen (fluorescence expression intensity) [2]: 4.33E+05
Total flux (fluorescence expression intensity) [2]: 9.45E+07
(Spleen/Total Flux) * 100% [2]: 0.46%
Multiple of spleen delivery/total delivery to amino lipid compound 118 [2]: 1.35

CCCCCCC(CCCCCC)OC(=O)CCCCCCCCC(CCCCCCCCC(=O)OC(CCCCCC)CCCCCC)OC(=O)N(CCCCCC(=O)OCC)CCCCN1CCCC1 [Compound 366]
Encapsulation efficiency [1]: 93.63%
Liver (fluorescence expression intensity) [2]: 8.92E+07
Spleen (fluorescence expression intensity) [2]: 4.11E+06
Total flux (fluorescence expression intensity) [2]: 5.82E+08
(Spleen/Total Flux) * 100% [2]: 0.71%
Multiple of spleen delivery/total delivery to amino lipid compound 118 [2]: 2.08

CC/C=C\COC(=O)CCCCCN(CCCN(C)C)C(=O)OC(CCCCCCCCC(=O)OC(CCCCCC)CCCCCC)CCCCCCCCC(=O)OC(CCCCCC)CCCCCC [Compound 284]
Encapsulation efficiency [1]: 91.63%
Liver (fluorescence expression intensity) [2]: 3.29E+07
Spleen (fluorescence expression intensity) [2]: 5.20E+06
Total flux (fluorescence expression intensity) [2]: 3.42E+08
(Spleen/Total Flux) * 100% [2]: 1.52%
Multiple of spleen delivery/total delivery to amino lipid compound 118 [2]: 4.47

CCCCCCC(CCCCCC)OC(=O)CCCCCCCCC(CCCCCCCCC(=O)OC(CCCCCC)CCCCCC)OC(=O)N(CCCN(C)C)CCC(=O)OC(C)CCCC (stereo not drawn) [Compound 320]
Encapsulation efficiency [1]: 92.13%
Liver (fluorescence expression intensity) [2]: 1.13E+08
Spleen (fluorescence expression intensity) [2]: 4.97E+06
Total flux (fluorescence expression intensity) [2]: 7.04E+08
(Spleen/Total Flux) * 100% [2]: 0.71%
Multiple of spleen delivery/total delivery to amino lipid compound 118 [2]: 2.08

CCC/C=C\COC(=O)CCCN(CCCN(C)C)C(=O)OC(CCCCCCCCC(=O)OC(CCCCCC)CCCCCC)CCCCCCCCC(=O)OC(CCCCCC)CCCCCC [Compound 276]
Encapsulation efficiency [1]: 88.92%
Liver (fluorescence expression intensity) [2]: 1.43E+08
Spleen (fluorescence expression intensity) [2]: 4.67E+06
Total flux (fluorescence expression intensity) [2]: 7.70E+08
(Spleen/Total Flux) * 100% [2]: 0.61%
Multiple of spleen delivery/total delivery to amino lipid compound 118 [2]: 1.78

CCCCCCC(CCCCCC)OC(=O)CCCCCCCCC(CCCCCCCCC(=O)OC(CCCCCC)CCCCCC)OC(=O)N(CCCN(C)C)CCC(=O)OC(CC)CCC (stereo not drawn) [Compound 321]
Encapsulation efficiency [1]: 93.85%
Liver (fluorescence expression intensity) [2]: 1.27E+08
Spleen (fluorescence expression intensity) [2]: 1.47E+07
Total flux (fluorescence expression intensity) [2]: 7.21E+08
(Spleen/Total Flux) * 100% [2]: 2.04%
Multiple of spleen delivery/total delivery to amino lipid compound 118 [2]: 6.00

CCCCCCC(CCCCCC)OC(=O)CCCCCCCCC(CCCCCCCCC(=O)OC(CCCCCC)CCCCCC)OC(=O)N(CCCN(C)C)CCC(=O)OC(C)C [Compound 316]
Encapsulation efficiency [1]: 90.67%
Liver (fluorescence expression intensity) [2]: 1.26E+08
Spleen (fluorescence expression intensity) [2]: 2.03E+07
Total flux (fluorescence expression intensity) [2]: 8.16E+08
(Spleen/Total Flux) * 100% [2]: 2.49%
Multiple of spleen delivery/total delivery to amino lipid compound 118 [2]: 7.32

CCCCCCC(CCCCCC)OC(=O)CCCCCCCCC(CCCCCCCCC(=O)OC(CCCCCC)CCCCCC)OC(=O)N(CCCN(C)C)CCC(=O)OC(C)CCCCC (stereo not drawn) [Compound 322]
Encapsulation efficiency [1]: 90.32%
Liver (fluorescence expression intensity) [2]: 9.73E+07
Spleen (fluorescence expression intensity) [2]: 6.56E+06
Total flux (fluorescence expression intensity) [2]: 7.90E+08
(Spleen/Total Flux) * 100% [2]: 0.83%
Multiple of spleen delivery/total delivery to amino lipid compound 118 [2]: 2.44

CCCCCCCOC(=O)CN(CCCN(C)C)C(=O)OC(CCCCCCCCC(=O)OCC(CCCC)CCCCCC)CCCCCCCCC(=O)OCC(CCCC)CCCCCC (stereo not drawn) [Compound 375]
Encapsulation efficiency [1]: 94.18%
Liver (fluorescence expression intensity) [2]: 1.55E+08
Spleen (fluorescence expression intensity) [2]: 7.63E+06
Total flux (fluorescence expression intensity) [2]: 4.06E+08
(Spleen/Total Flux) * 100% [2]: 1.88%
Multiple of spleen delivery/total delivery to amino lipid compound 118 [2]: 5.53

CCCC/C=C\CCOC(=O)CCCN(CCCN(C)C)C(=O)OC(CCCCCCCCC(=O)OC(CCCCCC)CCCCCC)CCCCCCCCC(=O)OC(CCCCCC)CCCCCC [Compound 279]
Encapsulation efficiency [1]: 92.43%
Liver (fluorescence expression intensity) [2]: 9.55E+07
Spleen (fluorescence expression intensity) [2]: 4.57E+06
Total flux (fluorescence expression intensity) [2]: 6.29E+08
(Spleen/Total Flux) * 100% [2]: 0.73%
Multiple of spleen delivery/total delivery to amino lipid compound 118 [2]: 2.14

CCCCCCC(CCCCCC)OC(=O)CCCCCCCCC(CCCCCCCCC(=O)OC(CCCCCC)CCCCCC)OC(=O)N(CCCCCC)CCCN(C)C [Compound 109]
Encapsulation efficiency [1]: 92.87%
Liver (fluorescence expression intensity) [2]: 5.22E+07
Spleen (fluorescence expression intensity) [2]: 8.53E+05
Total flux (fluorescence expression intensity) [2]: 2.80E+08
(Spleen/Total Flux) * 100% [2]: 0.30%
Multiple of spleen delivery/total delivery to amino lipid compound 118 [2]: 0.90

CCCCCCC(CCCCCC)OC(=O)CCCCCCCCC(CCCCCCCCC(=O)OC(CCCCCC)CCCCCC)OC(=O)N(CCCC(=O)OC(C)CC)CCCN(C)C (stereo not drawn) [Compound 308]
Encapsulation efficiency [1]: 93.71%
Liver (fluorescence expression intensity) [2]: 9.58E+07
Spleen (fluorescence expression intensity) [2]: 4.93E+06
Total flux (fluorescence expression intensity) [2]: 6.29E+08
(Spleen/Total Flux) * 100% [2]: 0.78%
Multiple of spleen delivery/total delivery to amino lipid compound 118 [2]: 2.31

CCCCCCC(CCCCCC)OC(=O)CCCCCCCCC(CCCCCCCCC(=O)OC(CCCCCC)CCCCCC)OC(=O)N(CCCCCC(=O)OCC)CCCN1CCCC1 [Compound 365]
Encapsulation efficiency [1]: 92.45%
Liver (fluorescence expression intensity) [2]: 9.03E+07
Spleen (fluorescence expression intensity) [2]: 4.45E+06
Total flux (fluorescence expression intensity) [2]: 6.73E+08
(Spleen/Total Flux) * 100% [2]: 0.66%
Multiple of spleen delivery/total delivery to amino lipid compound 118 [2]: 1.94

CCCCCCC(CCCCCC)OC(=O)CCCCCCCCC(CCCCCCCCC(=O)OC(CCCCCC)CCCCCC)OC(=O)N(CCCCC(=O)OC(CC)CCC)CCCN(C)C (stereo not drawn) [Compound 306]
Encapsulation efficiency [1]: 91.92%
Liver (fluorescence expression intensity) [2]: 4.13E+07
Spleen (fluorescence expression intensity) [2]: 5.44E+06
Total flux (fluorescence expression intensity) [2]: 2.45E+08
(Spleen/Total Flux) * 100% [2]: 2.22%
Multiple of spleen delivery/total delivery to amino lipid compound 118 [2]: 6.53

CCCCCCC(CCCCCC)OC(=O)CCCCCCCCC(CCCCCCCCC(=O)OC(CCCCCC)CCCCCC)OC(=O)N(CCCC(=O)OC(C)CCC)CCCN(C)C (stereo not drawn) [Compound 309]
Encapsulation efficiency [1]: 91.62%
Liver (fluorescence expression intensity) [2]: 4.90E+07
Spleen (fluorescence expression intensity) [2]: 3.44E+06
Total flux (fluorescence expression intensity) [2]: 3.69E+08
(Spleen/Total Flux) * 100% [2]: 0.93%
Multiple of spleen delivery/total delivery to amino lipid compound 118 [2]: 2.74

CC/C=C\COC(=O)CCCN(CCCN(C)C)C(=O)OC(CCCCCCCCC(=O)OC(CCCCCC)CCCCCC)CCCCCCCCC(=O)OC(CCCCCC)CCCCCC [Compound 275]
Encapsulation efficiency [1]: 90.61%
Liver (fluorescence expression intensity) [2]: 1.23E+08
Spleen (fluorescence expression intensity) [2]: 8.84E+06
Total flux (fluorescence expression intensity) [2]: 8.16E+08
(Spleen/Total Flux) * 100% [2]: 1.08%
Multiple of spleen delivery/total delivery to amino lipid compound 118 [2]: 3.19

CCCCCCCOC(=O)CCN(CCCN(C)C)C(=O)OC(CCCCCCCCC(=O)OCC(CCCC)CCCCCC)CCCCCCCCC(=O)OCC(CCCC)CCCCCC (stereo not drawn) [Compound 373]
Encapsulation efficiency [1]: 92.01%
Liver (fluorescence expression intensity) [2]: 9.15E+07
Spleen (fluorescence expression intensity) [2]: 6.93E+06
Total flux (fluorescence expression intensity) [2]: 4.77E+08
(Spleen/Total Flux) * 100% [2]: 1.45%
Multiple of spleen delivery/total delivery to amino lipid compound 118 [2]: 4.27
